These results are taken from PMC8950868, “Identifying Human PTP1B Enzyme Inhibitors from Marine Natural Products: Perspectives for Developing of Novel Insulin-Mimetic Drugs” (Pharmaceuticals, 2022).

Entries after “also recorded” stand apart in the source; their conditions may differ.

In experiment [1] the target is T1, human recombinant PTP1B (1–302) (Homo sapiens, UniProt P18031).
T1 construct: human recombinant PTP1B (1–302)
T1 sequence (P18031 1-302): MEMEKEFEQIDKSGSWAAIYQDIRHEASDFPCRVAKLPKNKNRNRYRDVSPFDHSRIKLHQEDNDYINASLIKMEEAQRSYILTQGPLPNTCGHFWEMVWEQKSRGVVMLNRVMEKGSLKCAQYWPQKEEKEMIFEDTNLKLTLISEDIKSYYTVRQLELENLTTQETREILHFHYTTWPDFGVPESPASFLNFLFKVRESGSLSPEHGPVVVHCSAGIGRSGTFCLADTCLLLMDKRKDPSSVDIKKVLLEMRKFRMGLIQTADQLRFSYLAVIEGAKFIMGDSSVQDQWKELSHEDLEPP
The experiment in a line: PTP1B enzymatic assay (p-NPP hydrolysis; preliminary screening and IC50). The format is biochemical. Particulars: for Effect on PTP1B activity in preliminary screening: 20 µM of each compound, 30 min; for IC50: 2.5 mM p-NPP, pH 7.0, 37 °C, mean ± SD (n = 3), read-out: IC50 values determined on PTP1B. The protocol:
We performed enzymatic assays as previously described. For each assay, an aliquot of human recombinant PTP1B (1–302) was added in the assay buffer (0.075 M β,β-dimethylglutarate pH 7.0 containing 1 mM EDTA, 0.1 mM DTT and a p-nitrophenylphosphate (p-NPP) (Chemcruz, Santa Cruz Biotechnology (Santa Cruz, CA, USA)). The reactions were performed at 37 °C in a final volume of 1 mL. After adequate time (30 min) of incubation, the reactions were stopped adding 2 mL of 0.1 M KOH in each sample. The released amount of p-nitrophenol, product of the reaction, was determined by measuring the absorbance at 400 nm in a 1 cm pathlength cuvette.
The IC50 value of compounds against PTP1B was determined by measuring the hydrolysis rate of the enzyme in the presence of a fixed substrate concentration (2.5 mM p-NPP) and increasing inhibitor concentrations (generally 14–16 different concentrations). Each test was carried out in triplicate. Experimental data were normalized respect to control samples and then fitted using a non-linear fitting software, using the following equation: Vi/V0=Max−Min/1+x/IC50^slope+Min where the Vi/V0 value represents the relative activity calculated in presence of each inhibitor concentration; the maximum and minimum value of the activity are represented by “Max” and “Min”, respectively; “x” is the concentration of the inhibitor; IC50 is the inhibitor concentration able to decrease the enzymatic activity up to 50%; “slope” represents the slope of the curve in the transition zone.
Figure 2 Preliminary screening assay on PTP1B. All assays were started by diluting an aliquot of PTP1B in the assay solution containing substrate alone (control test) or substrate and an aliquot of each compound (20 µM, final concentration). After 30 min, the reactions were stopped by adding a concentrated KOH solution. The enzyme activity was determined by measuring the amount of p-nitrophenol that was released in each sample using a spectrophotometer. Data obtained were normalized respect to control sample. […] Statistical analysis was carried out using one way ANOVA followed by Tukey’s HSD test for pairwise comparisons. Statistics have been drawn on raw data and compare samples to control (Ctr). * p < 0.05; ** p < 0.01.
Figure 3 Determination of the IC50 values with compounds 3, 8a, 8b, 9a and 9b. An aliquot of PTP1B enzyme was diluted in the presence of increasing concentration of the compounds. The activity of PTP1B was determined by measuring the absorbance of the sample at 400 nm, using a spectrophotometer. Data obtained were normalized respect to the control sample and analysed using a non-linear fitting software.

The next experiment addresses T2, human recombinant AR (Homo sapiens, UniProt P15121).
T2 construct: made in house
The experiment in a line: AR enzymatic assay (NADPH oxidation, L-idose substrate). It is filed as biochemical. Particulars: for remaining activity at 71 µM: 71 µM (maximal concentration used), read-out: % residual activity of human AR. Here is the method: The human recombinant AR, purified to electrophoretic homogeneity as described, was used as target enzyme. AR activity was determined at 37 °C as previously described by evaluating the decrease in absorbance at 340 nm linked to NADPH oxidation using a Biochrom Libra S60 spectrophotometer. The standard assay mixture contained 0.25 M sodium phosphate buffer pH 6.8, 0.18 mM NADPH, 0.42 M ammonium sulfate, 0.5 mM EDTA and 4.7 mM D,L-glyceraldehyde. One unit of enzyme activity is the amount that catalyses the conversion of 1 µmol of substrate/min in the above assay conditions. For AR inhibition studies, 0.8 mM L-idose was used as substrate in the conditions described above, in the presence of 10 mU of enzyme and of a final concentration of DMSO of 0.7% (v/v).

A further experiment concerns C2C12 cells. The experiment in a line: Insulin signalling pathway analysis (western blot of pIR and pAkt). It is filed as cell-based, murine. Particulars: for Effect on insulin signalling pathway: differentiated C2C12 cells. Here is the method: C2C12 cells were plated on P35 dishes, grown until 80% confluence and then incubated in the presence of differentiation medium (DMEM-high glucose (4500 mg/L) supplemented with 2% Horse serum (HS, Euroclone), 2 mM glutamine, 100 U/mL penicillin, and 100 μg/mL streptomycin) for 4 days. After this time, cell plates were washed with PBS and cells stimulated with 10 nM insulin, compound 3 or insulin-compound 3 combination for 30 min. After cell plates were washed with cold PBS solution and lysed using 1X Leammli sample buffer. Samples were store at 4 °C for 15 min and then protein solutions were collected and boiled for 5 min. Proteins were analysed by SDS-PAGE and then transferred on a PVDF membrane by western blot. Phosphorylation status of insulin receptor and the kinase Akt was evaluated using specific antibodies (pIR β subunit, Y1162/1163 (sc-25103-R) and β-actin, clone C-4 (sc-47778) were from Santa Cruz Biotechnology (Santa Cruz, CA, USA); IR β subunit, clone CT-3 (MABS65) was from Merck-Millipore (Burlington, MA, USA). Akt (9272S) and p-Akt (9271S) antibodies were from Cell Signalling Technology (Danvers, MA, USA). Secondary antibodies were from Santa Cruz Biotechnology (Santa Cruz, CA, USA). Detection was performed using Clarity western ECL substrates (Bio-Rad Laboratories, Inc.).
Figure 12 Effect of compound 3 on insulin signalling pathway. C2C12 cells were incubated with compound 3 (20 µM final concentration) for 30 min, in the presence or not of insulin (10 nM). After that, cells were lysed, and cellular extracts were analysed to evaluate the phosphorylation status of IR and Akt. (A), western blot image; (B,C), quantitation of western blot carried out using Kodak MI software. Data were normalized respect to control sample. All tests were carried out in triplicate. Ctr: control experiment; Ins: cells treated with 10 nM insulin; 3: cells treated with compound 3 (20 µM); 3 + Ins, cells treated with insulin and compound 3. Statistical analysis was carried out using one way ANOVA followed by Tukey’s HSD test for pairwise comparisons. * p < 0.05.

[2] abbreviates: 20 µM compound + 10 nM insulin, versus insulin alone.
[3] abbreviates: 20 µM compound alone, 30 min, versus control cells.

`CCCCC[C@@H](OP(=O)(O)O)[C@@H](O)CC[C@H](CCCC)OC(C)=O` (relative stereo) [Compound 8a]: in experiment [1], the “Effect on PTP1B activity in preliminary screening” value is “reducing PTP1B activity” and the IC50 stood at 16 ± 2 µM. Further, the remaining activity at 71 µM on human recombinant AR was determined as 87 ± 2%. For the same compound, the “Effect on insulin signalling pathway” value in the experiment on C2C12 cells was “did not improve the insulin signalling pathway; also recorded: completely inactive”.

As for `CCCCCCCCCCCCCCC(OP(=O)(O)O)C(O)CCCO` (stereo not shown) [Compound 3], in experiment [1], the “Effect on PTP1B activity in preliminary screening” value is “reducing PTP1B activity” and the IC50 amounted to 6.7 ± 3.3 µM. On human recombinant AR, the “AR inhibition (in words)” value is reported as “ineffective” and the remaining activity at 71 µM amounted to 82 ± 3%. Further, in the experiment with C2C12 cells (setting [2]), the “Phosphorylation level of Akt” value was “not statistically different” and the “Phosphorylation level of insulin receptor (IR)” value is “not statistically different”. In the experiment on C2C12 cells (setting [3]), the “Phosphorylation level of Akt” value was “increased with respect to control cells” and the “Phosphorylation level of insulin receptor (IR)” value was “increased with respect to control cells”. Moreover, the “Effect on insulin signalling pathway” value in the experiment with C2C12 cells was “acts as an insulin-mimetic agent; also recorded: evident insulin-mimetic activity”.
